The values that follow are results of earlier work, collected in patent US20230346696A1, “SPRAY DRIED LOW HYGROSCOPICITY ACTIVE POWDER COMPOSITIONS” (PHILIP MORRIS PRODUCTS S.A., priority 2020, published 2023).

The conditions of the series: 25° C.

In the case of `OC[C@H]1O[C@H](O[C@H]2O[C@H](CO)[C@@H](O)[C@H](O)[C@H]2O)[C@H](O)[C@@H](O)[C@@H]1O` [trehalose], the solubility was 69 g/100 ml water.
